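All cell lines were grown in 96-well plates and treated with compound for 48 hours. The concentration for 50% growth inhibition is given as GI50.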 Calls of active or inactive are those of the source. Cut-off read from the data, not from the text of the source: active = GI50 up to about 1.1 µM and inactive = higher.
Columns and labels:
Assay in all cases: growth of human tumour cells (NCI), 48 h
HT-29 = tested on: HT-29
CCRF-CEM = tested on: CCRF-CEM
KM12 = tested on: KM12
HOP-62 = tested on: HOP-62
NCI-H522 = tested on: NCI-H522
K562 = tested on: K562
Malme-3M = tested on: Malme-3M
DU-145 = tested on: DU-145
OVCAR-5 = tested on: OVCAR-5
SK-MEL-5 = tested on: SK-MEL-5
LOX IMVI = tested on: LOX IMVI
SK-MEL-28 = tested on: SK-MEL-28
SW-620 = tested on: SW-620
RPMI-8226 = tested on: RPMI-8226
SF-268 = tested on: SF-268
TK-10 = tested on: TK-10
HCT-116 = tested on: HCT-116
SF-295 = tested on: SF-295
PC-3 = tested on: PC-3
SNB-19 = tested on: SNB-19
OVCAR-4 = tested on: OVCAR-4
EKVX = tested on: EKVX
SR = tested on: SR
SK-MEL-2 = tested on: SK-MEL-2
NCI/ADR-RES = tested on: NCI/ADR-RES
ACHN = tested on: ACHN
M14 = tested on: M14
HCC 2998 = tested on: HCC 2998
COLO 205 = tested on: COLO 205
UACC-62 = tested on: UACC-62
SN12C = tested on: SN12C
NCI-H23 = tested on: NCI-H23
MDA-N = tested on: MDA-N
UO-31 = tested on: UO-31
OVCAR-3 = tested on: OVCAR-3
HL-60 = tested on: HL-60
T47D = tested on: T47D
SNB-75 = tested on: SNB-75
A498 = tested on: A498
A549 = tested on: A549
IGROV-1 = tested on: IGROV-1
MDA-MB-435 = tested on: MDA-MB-435
NCI-H460 = tested on: NCI-H460
NCI-H226 = tested on: NCI-H226
CAKI-1 = tested on: CAKI-1
Hs-578T = tested on: Hs-578T
HOP-92 = tested on: HOP-92
UACC-257 = tested on: UACC-257
BT-549 = tested on: BT-549
RXF 393 = tested on: RXF 393
786-0 = tested on: 786-0
SF-539 = tested on: SF-539
OVCAR-8 = tested on: OVCAR-8
U-251 = tested on: U-251
MOLT-4 = tested on: MOLT-4
MCF7 = tested on: MCF7
HCT-15 = tested on: HCT-15
SK-OV-3 = tested on: SK-OV-3
MDA-MB-231 = tested on: MDA-MB-231

Measured: GI50

O=C1N=C(Nc2ccccc2Cl)N/C1=C\c1ccc(Cl)cc1Cl
39.5 µM: HCT-15
inactive: HT-29 > 100 µM | CCRF-CEM 29.5 µM | KM12 45.6 µM | HOP-62 62.4 µM | NCI-H522 11.9 µM | K562 9.46 µM | Malme-3M 53.6 µM | DU-145 33.3 µM | OVCAR-5 > 100 µM | SK-MEL-5 71.9 µM | LOX IMVI > 100 µM | SK-MEL-28 99.8 µM | SW-620 46.3 µM | RPMI-8226 > 100 µM | SF-268 > 100 µM | TK-10 > 100 µM | HCT-116 38.4 µM | SF-295 60.8 µM | PC-3 33.7 µM | SNB-19 > 100 µM | OVCAR-4 44.3 µM | EKVX > 100 µM | SR 5.3 µM | SK-MEL-2 18.9 µM | NCI/ADR-RES 45.6 µM | ACHN 62.1 µM | M14 72.6 µM | HCC 2998 53.5 µM | COLO 205 47.8 µM | UACC-62 > 100 µM | SN12C 25 µM | NCI-H23 > 100 µM | MDA-N 8.11 µM | UO-31 > 100 µM | OVCAR-3 66.1 µM | T47D > 100 µM | SNB-75 29.9 µM | A498 33.1 µM | A549 98.9 µM | IGROV-1 79.4 µM | MDA-MB-435 5.96 µM | NCI-H460 49.2 µM | NCI-H226 25.1 µM | CAKI-1 > 100 µM | Hs-578T > 100 µM | HOP-92 39.9 µM | UACC-257 75.3 µM | BT-549 > 100 µM | RXF 393 15.5 µM | 786-0 68.2 µM | SF-539 37.8 µM | OVCAR-8 38.3 µM | U-251 33.9 µM | MOLT-4 66.8 µM | MCF7 31.4 µM | SK-OV-3 > 100 µM
active: HL-60 0.122 µM

COC(=O)c1ccc(S)c(S(=O)(=O)Nc2nc(N)n[nH]2)c1
> 100 µM: HCT-15
inactive: HT-29 > 100 µM | CCRF-CEM > 100 µM | KM12 > 100 µM | NCI-H522 > 100 µM | K562 > 100 µM | Malme-3M > 100 µM | DU-145 > 100 µM | OVCAR-5 > 100 µM | SK-MEL-5 > 100 µM | LOX IMVI > 100 µM | SK-MEL-28 > 100 µM | SW-620 > 100 µM | RPMI-8226 > 100 µM | TK-10 > 100 µM | HCT-116 > 100 µM | SF-295 > 100 µM | PC-3 > 100 µM | SNB-19 > 100 µM | OVCAR-4 > 100 µM | EKVX > 100 µM | SR > 100 µM | SK-MEL-2 > 100 µM | NCI/ADR-RES > 100 µM | ACHN > 100 µM | M14 > 100 µM | COLO 205 > 100 µM | MDA-MB-231 > 100 µM | UACC-62 > 100 µM | SN12C > 100 µM | NCI-H23 > 100 µM | MDA-N > 100 µM | UO-31 > 100 µM | OVCAR-3 > 100 µM | HL-60 > 100 µM | T47D > 100 µM | A498 > 100 µM | A549 > 100 µM | IGROV-1 > 100 µM | MDA-MB-435 > 100 µM | NCI-H460 > 100 µM | CAKI-1 > 100 µM | Hs-578T > 100 µM | HOP-92 > 100 µM | UACC-257 > 100 µM | BT-549 > 100 µM | 786-0 > 100 µM | SF-539 > 100 µM | OVCAR-8 > 100 µM | U-251 > 100 µM | MOLT-4 > 100 µM

CCOC(=O)CC(c1ccccc1)C(C)(C(=O)OCC)C(=O)OCC (stereo not given)
inactive: HT-29 > 100 µM | CCRF-CEM > 100 µM | KM12 > 100 µM | HOP-62 > 100 µM | NCI-H522 > 100 µM | K562 > 100 µM | Malme-3M > 100 µM | DU-145 > 100 µM | OVCAR-5 > 100 µM | SK-MEL-5 > 100 µM | LOX IMVI > 100 µM | SK-MEL-28 > 100 µM | SW-620 > 100 µM | SF-268 > 100 µM | TK-10 > 100 µM | HCT-116 > 100 µM | SF-295 > 100 µM | PC-3 77.6 µM | SNB-19 > 100 µM | OVCAR-4 > 100 µM | EKVX > 100 µM | SR 61.2 µM | SK-MEL-2 > 100 µM | NCI/ADR-RES > 100 µM | ACHN > 100 µM | M14 > 100 µM | HCC 2998 > 100 µM | COLO 205 > 100 µM | MDA-MB-231 > 100 µM | UACC-62 > 100 µM | SN12C > 100 µM | NCI-H23 > 100 µM | MDA-N > 10 µM | UO-31 33.3 µM | HL-60 > 100 µM | T47D 78.2 µM | SNB-75 87.3 µM | A549 > 100 µM | IGROV-1 > 100 µM | NCI-H460 > 100 µM | NCI-H226 > 100 µM | CAKI-1 > 100 µM | Hs-578T > 100 µM | UACC-257 > 100 µM | BT-549 70.1 µM | RXF 393 3.23 µM | 786-0 > 100 µM | SF-539 > 100 µM | OVCAR-8 > 100 µM | U-251 > 100 µM | MOLT-4 76.9 µM | MCF7 > 100 µM | SK-OV-3 > 100 µM
> 100 µM: HCT-15

COc1ccc(C(=O)c2[nH]c(Nc3ccc(Cl)cc3)c(C(=S)Nc3ccccc3)c2N)cc1
inactive: HT-29 24.8 µM | CCRF-CEM > 100 µM | KM12 > 100 µM | HOP-62 > 100 µM | NCI-H522 > 100 µM | K562 > 100 µM | Malme-3M > 100 µM | DU-145 > 100 µM | OVCAR-5 > 100 µM | SK-MEL-5 > 100 µM | LOX IMVI > 100 µM | SK-MEL-28 22.8 µM | SW-620 > 100 µM | SF-268 > 100 µM | TK-10 > 100 µM | HCT-116 60.7 µM | SF-295 > 100 µM | SNB-19 > 100 µM | OVCAR-4 23.8 µM | EKVX > 100 µM | SR > 100 µM | SK-MEL-2 > 100 µM | NCI/ADR-RES > 100 µM | ACHN > 100 µM | HCC 2998 > 100 µM | COLO 205 > 100 µM | MDA-MB-231 > 100 µM | UACC-62 > 100 µM | SN12C > 100 µM | NCI-H23 > 100 µM | MDA-N > 100 µM | UO-31 > 100 µM | OVCAR-3 > 100 µM | HL-60 > 100 µM | T47D > 100 µM | SNB-75 44 µM | A498 > 100 µM | A549 > 100 µM | IGROV-1 > 100 µM | MDA-MB-435 > 100 µM | NCI-H460 > 100 µM | NCI-H226 47 µM | CAKI-1 > 100 µM | Hs-578T > 100 µM | HOP-92 > 100 µM | UACC-257 > 100 µM | BT-549 > 100 µM | RXF 393 > 100 µM | 786-0 > 100 µM | SF-539 > 100 µM | OVCAR-8 > 100 µM | MOLT-4 > 100 µM | MCF7 70.5 µM | SK-OV-3 > 100 µM
> 100 µM: HCT-15

O=c1c(-c2ccccc2F)coc2cc(F)ccc12
inactive: HT-29 > 100 µM | CCRF-CEM > 100 µM | KM12 > 100 µM | HOP-62 > 100 µM | NCI-H522 37.7 µM | DU-145 > 100 µM | OVCAR-5 > 100 µM | SK-MEL-5 > 100 µM | LOX IMVI 34.8 µM | SK-MEL-28 > 100 µM | SW-620 > 100 µM | SF-268 > 100 µM | TK-10 > 100 µM | HCT-116 > 100 µM | SF-295 > 100 µM | PC-3 > 100 µM | SNB-19 > 100 µM | OVCAR-4 > 100 µM | EKVX > 100 µM | SK-MEL-2 > 100 µM | ACHN > 100 µM | M14 > 100 µM | COLO 205 > 100 µM | MDA-MB-231 > 100 µM | UACC-62 > 100 µM | SN12C > 100 µM | NCI-H23 63.4 µM | MDA-N > 100 µM | UO-31 > 100 µM | OVCAR-3 > 100 µM | HL-60 70.6 µM | T47D > 100 µM | SNB-75 24.2 µM | A498 > 100 µM | A549 > 100 µM | IGROV-1 88.3 µM | MDA-MB-435 > 100 µM | NCI-H460 > 100 µM | NCI-H226 > 100 µM | CAKI-1 > 100 µM | Hs-578T > 100 µM | HOP-92 > 100 µM | UACC-257 > 100 µM | BT-549 99.1 µM | RXF 393 > 100 µM | 786-0 79.6 µM | SF-539 91.4 µM | OVCAR-8 > 100 µM | U-251 97.7 µM | MOLT-4 > 100 µM | SK-OV-3 > 100 µM
> 100 µM: HCT-15

Source: ChEMBL document CHEMBL1201862, “PubChem BioAssay data set” (2004)
